Assays:
[1] = molecular target: Neuronal acetylcholine receptor; alpha4/beta2 (Homo sapiens, UniProt P17787+P43681); test: Antagonist activity at human nAChR alpha4/beta2 receptor expressed in HEK ts201 cells assessed as calcium accumulation by fluorescence analysis; assay type: functional, cell-based
[2] = molecular target: Neuronal acetylcholine receptor; alpha3/beta4 (Homo sapiens, UniProt P30926+P32297); test: Antagonist activity at human nAChR alpha3/beta4 receptor expressed in HEK ts201 cells assessed as calcium accumulation by fluorescence analysis; assay type: functional, cell-based
Sequence of Neuronal acetylcholine receptor; alpha3/beta4 (P30926 whole entry): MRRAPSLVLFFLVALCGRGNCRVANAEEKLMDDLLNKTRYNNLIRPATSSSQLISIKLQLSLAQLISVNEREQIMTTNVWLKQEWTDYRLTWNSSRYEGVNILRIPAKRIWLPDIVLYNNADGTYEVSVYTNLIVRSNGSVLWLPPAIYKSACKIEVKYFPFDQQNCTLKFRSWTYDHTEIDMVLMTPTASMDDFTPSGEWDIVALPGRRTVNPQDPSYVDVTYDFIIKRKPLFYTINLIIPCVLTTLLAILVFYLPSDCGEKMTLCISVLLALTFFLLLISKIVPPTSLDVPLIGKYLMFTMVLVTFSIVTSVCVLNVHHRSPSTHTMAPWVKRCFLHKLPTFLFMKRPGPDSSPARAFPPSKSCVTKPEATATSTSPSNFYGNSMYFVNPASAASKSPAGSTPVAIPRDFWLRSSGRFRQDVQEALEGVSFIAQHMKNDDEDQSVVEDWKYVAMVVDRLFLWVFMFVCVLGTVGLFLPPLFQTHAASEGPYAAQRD
Sequence of Neuronal acetylcholine receptor; alpha3/beta4 (P32297 whole entry): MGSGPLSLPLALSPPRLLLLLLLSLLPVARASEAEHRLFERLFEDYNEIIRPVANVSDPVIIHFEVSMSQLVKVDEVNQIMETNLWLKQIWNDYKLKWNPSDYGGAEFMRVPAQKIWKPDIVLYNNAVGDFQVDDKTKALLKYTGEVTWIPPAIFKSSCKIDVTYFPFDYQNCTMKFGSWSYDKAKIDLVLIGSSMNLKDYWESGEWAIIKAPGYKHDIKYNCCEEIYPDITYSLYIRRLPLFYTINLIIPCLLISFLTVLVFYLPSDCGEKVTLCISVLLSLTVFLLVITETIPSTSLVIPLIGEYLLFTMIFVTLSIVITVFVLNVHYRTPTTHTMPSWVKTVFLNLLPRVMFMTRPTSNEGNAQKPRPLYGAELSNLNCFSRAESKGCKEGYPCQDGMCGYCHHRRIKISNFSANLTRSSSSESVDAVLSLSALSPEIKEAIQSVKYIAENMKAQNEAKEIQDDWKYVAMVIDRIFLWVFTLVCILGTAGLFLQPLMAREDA

Homo sapiens [3] = species: Homo sapiens; test: Selectivity ratio of IC50 for human nAChR alpha3/beta4 receptor to IC50 for human nAChR alpha4/beta2 receptor
[4] = Lipophilicity, log P of the compound; assay type: physicochemical; conditions: octanol/water
Homo sapiens [5] = species: Homo sapiens; test: Selectivity ratio of pIC50 for human nAChR alpha3/beta4 receptor to pIC50 for human nAChR alpha4/beta2 receptor

Sequence of Neuronal acetylcholine receptor; alpha4/beta2 (P17787 whole entry): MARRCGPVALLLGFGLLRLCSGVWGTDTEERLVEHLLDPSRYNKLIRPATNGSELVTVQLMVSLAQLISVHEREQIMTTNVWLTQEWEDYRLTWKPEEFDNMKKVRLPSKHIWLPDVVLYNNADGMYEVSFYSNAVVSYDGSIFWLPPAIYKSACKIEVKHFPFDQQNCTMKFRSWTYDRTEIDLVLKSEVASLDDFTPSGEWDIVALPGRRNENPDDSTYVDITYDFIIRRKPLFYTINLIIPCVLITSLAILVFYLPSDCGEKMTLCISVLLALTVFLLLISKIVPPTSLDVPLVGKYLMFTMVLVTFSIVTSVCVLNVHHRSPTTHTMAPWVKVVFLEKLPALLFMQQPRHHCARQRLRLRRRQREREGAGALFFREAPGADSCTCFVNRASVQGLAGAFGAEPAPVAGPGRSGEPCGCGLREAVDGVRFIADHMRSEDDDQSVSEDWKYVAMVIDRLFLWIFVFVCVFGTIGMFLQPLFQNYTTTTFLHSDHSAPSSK
Sequence of Neuronal acetylcholine receptor; alpha4/beta2 (P43681 whole entry): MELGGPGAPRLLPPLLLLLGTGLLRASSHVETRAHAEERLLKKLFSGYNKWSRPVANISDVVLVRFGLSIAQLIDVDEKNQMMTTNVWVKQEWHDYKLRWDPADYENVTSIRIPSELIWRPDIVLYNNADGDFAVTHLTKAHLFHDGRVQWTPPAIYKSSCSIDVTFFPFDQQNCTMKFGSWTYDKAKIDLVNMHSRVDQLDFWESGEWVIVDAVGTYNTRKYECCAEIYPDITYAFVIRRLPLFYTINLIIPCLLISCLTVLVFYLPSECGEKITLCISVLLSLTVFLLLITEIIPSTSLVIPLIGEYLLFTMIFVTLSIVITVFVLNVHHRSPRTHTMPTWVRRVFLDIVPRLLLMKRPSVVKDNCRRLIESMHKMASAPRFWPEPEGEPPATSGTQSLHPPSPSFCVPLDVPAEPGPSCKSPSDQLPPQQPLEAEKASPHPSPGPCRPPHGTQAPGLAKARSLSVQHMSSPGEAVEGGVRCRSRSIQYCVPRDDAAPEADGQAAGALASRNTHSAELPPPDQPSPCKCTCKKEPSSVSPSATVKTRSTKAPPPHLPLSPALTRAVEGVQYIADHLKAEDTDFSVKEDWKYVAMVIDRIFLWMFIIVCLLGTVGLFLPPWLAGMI

Row | SMILES | IC50 ([1]; read-out: IC50) | IC50 ([2]; read-out: IC50) | Ratio IC50 (Homo sapiens [3]) | logP [4] | IC50 ([1]; read-out: pIC50 (converted)) | IC50 ([2]; read-out: pIC50 (converted)) | Ratio pIC50 (Homo sapiens [5])
1 | O=C(Nc1cccc2ccccc12)c1ccccc1-c1ccccc1 | 10.7 µM | 18.2 µM | 1.8 |  |  |  | 
2 | O=C(OC1CCCN(C(=O)CCc2ccccc2)C1)c1ccccc1-c1ccccc1 (stereo not given) | 4.3 µM | 6 µM | 1.5 |  |  |  | 
3 | O=C(NCc1ccccc1)c1ccccc1-c1ccccc1 | 7.5 µM | 7.6 µM | 1 |  |  |  | 
4 | O=C(NCc1cccc2ccccc12)c1ccccc1-c1ccccc1 | 13.9 µM | > 100 µM | > 10 | 5 |  |  | 
5 | CC1CC(=O)N(c2ccccc2C(=O)OCC2CCCN(CCc3c[nH]c4ccccc34)C2)C1=O (stereo not given) |  |  |  |  | 5.62 µM | 74.1 µM | 1.12
6 | c1ccc(CCCN2CCCC(COCc3cn(Cc4ccccc4-c4ccccc4)nn3)C2)cc1 (stereo not given) |  |  |  |  | 2.88 µM | 7.24 µM | 0.39
7 | Cc1ccc(OCCN2CCCC(COC(=O)c3ccccc3N3C(=O)CC(C)C3=O)C2)cc1 (stereo not given) |  |  |  |  | 11.2 µM | 18.6 µM | 0.22
8 | O=C(OCC1CCN(C(=O)CCc2ccccc2)CC1)c1ccccc1-c1ccccc1 | 5.9 µM | 9.4 µM | 1.4 |  |  |  | 
9 | C[C@H]1CC(=O)N(c2ccccc2C(=O)OC[C@H]2CCCN(CCCc3ccccc3)C2)C1=O |  |  |  |  | 10.5 µM | 11 µM | 0.02
10 | CC1CC(=O)N(c2ccccc2C(=O)OC[C@@H]2C[C@H](C3CCCCC3)CN(CCCc3ccccc3)C2)C1=O (stereo not given in full) |  |  |  |  | 39.8 µM | 85.1 µM | 0.33
11 | O=C(Nc1ccncn1)c1ccccc1-c1ccccc1 | 25.1 µM | 39.6 µM | 1.6 |  |  |  | 
12 | O=C(Nc1ccccc1)c1ccccc1-c1ccccc1 | 6.9 µM | 10.7 µM | 1.6 |  |  |  | 
13 | CC1CC(=O)N(c2ccccc2C(=O)OCC2CCCN(CCOc3ccc(Cl)c(Cl)c3)C2)C1=O (stereo not given) |  |  |  |  | 15.1 µM | 17.4 µM | 0.06
14 | O=C(OCC1CCCN(C(=O)CCc2ccccc2)C1)c1ccccc1C(F)(F)F (stereo not given) | 3.9 µM | 6.3 µM | 2.1 |  |  |  | 
15 | O=C(Nc1ccccn1)c1ccccc1-c1ccccc1 | 13.6 µM | 17.5 µM | 1.3 |  |  |  | 
16 | CC1(C)OC2C3CC(C2O1)N(CCCc1ccccc1)CC3OC(=O)c1ccccc1-c1ccccc1 (stereo not given) |  |  |  |  | 11.5 µM | 13.8 µM | 0.08
17 | O=C(OCC1CCCN(CCCc2ccccc2)C1)c1ccccc1-c1ccccc1 (stereo not given) | 13.5 µM | > 100 µM |  | 5.9 |  |  | 3.87
18 | CCN1CCCC(COC(=O)c2ccccc2N2C(=O)CC(Cc3ccccc3)C2=O)C1 (stereo not given) |  |  |  |  | 4.47 µM | 11.7 µM | 0.42
19 | [N-]=[N+]=NCCCN1CCCC(COC(=O)c2ccccc2-c2ccccc2)C1 (single isomer, unassigned) |  |  |  |  | 4.27 µM | 1.82 µM | -0.38
20 | CC1CC(=O)N(c2ccccc2C(=O)OCC2CCCN(CCOc3cccc(-c4ccccc4)c3)C2)C1=O (stereo not given) |  |  |  |  | 7.24 µM | 26.9 µM | 0.57
21 | CO[C@@H]1C[C@H](OC)C[C@@H](OCCN2CCCC(COC(=O)c3ccccc3N3C(=O)CC(C)C3=O)C2)C1 (stereo not given in full) |  |  |  |  | 12.6 µM | 41.7 µM | 0.68
22 | CC1CC(=O)N(c2ccccc2C(=O)OCC2CCCN(CCCCCOc3ccc(Cl)c(Cl)c3)C2)C1=O (stereo not given) |  |  |  |  | 17.4 µM | 9.12 µM | -0.28
23 | CC1CC(=O)N(c2ccccc2C(=O)OCC2CCCN(CCCCCc3ccccc3)C2)C1=O (stereo not given) |  |  |  |  | 24.5 µM | 4.17 µM | -0.77
24 | c1ccc(CCCN2CCCC(COCc3ccccc3-c3ccccc3)C2)cc1 (stereo not given) |  |  |  |  | 12.6 µM | 15.5 µM | 0.09
25 | O=C(OCC1CCN(CCCc2ccccc2)CC1)c1ccccc1-c1ccccc1 | 8.1 µM | 10.5 µM |  |  |  |  | 0.11
26 | O=C(OCC1CCCN(CCCc2ccccc2)C1)c1ccccc1-n1cc(-c2ccccc2)nn1 (single isomer, unassigned) |  |  |  |  | 2.82 µM | 4.27 µM | 0.19

Source: ChEMBL document CHEMBL1949658, “3D-QSAR and 3D-QSSR models of negative allosteric modulators facilitate the design of a novel selective antagonist of human α4β2 neuronal nicotinic acetylcholine receptors” (Bioorg Med Chem Lett, 2012)
